From patent publication US6399629B1, “Efflux pump inhibitors” (priority 1998, dated 2002)

Test system: Pseudomonas aeruginosa PAM1001
Test: checkerboard assay (broth microdilution): levofloxacin MIC in presence of efflux pump inhibitor
Assay type: cell-based
Method in brief: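 Reduction of levofloxacin MIC by an efflux pump inhibitor measured against Pseudomonas aeruginosa PAM1001. Each microdilution well held a unique combination of levofloxacin and inhibitor (max 40 μg/mL) in MHB, inoculum 5×10^5 CFU/mL. Readout after 20 h, 35° C: OD650 plus visual inspection.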

| SMILES | Levofloxacin MIC Against P. aerugiuosa PAM1001 in Presence of Efflux Pump Inhibitor (EPI), Minimum Inhibitory Concentration (EPI Conc. 0 μg/mL) | Levofloxacin MIC Against P. aerugiuosa PAM1001 in Presence of Efflux Pump Inhibitor (EPI), Minimum Inhibitory Concentration (EPI Conc. 0.625 μg/mL) | Levofloxacin MIC Against P. aerugiuosa PAM1001 in Presence of Efflux Pump Inhibitor (EPI), Minimum Inhibitory Concentration (EPI Conc. 1.25 μg/mL) | Levofloxacin MIC Against P. aerugiuosa PAM1001 in Presence of Efflux Pump Inhibitor (EPI), Minimum Inhibitory Concentration (EPI Conc. 2.5 μg/mL) | Levofloxacin MIC Against P. aerugiuosa PAM1001 in Presence of Efflux Pump Inhibitor (EPI), Minimum Inhibitory Concentration (EPI Conc. 5 μg/ mL) | Levofloxacin MIC Against P. aerugiuosa PAM1001 in Presence of Efflux Pump Inhibitor (EPI), Minimum Inhibitory Concentration (EPI Conc. 10 μg/mL) | Levofloxacin MIC Against P. aerugiuosa PAM1001 in Presence of Efflux Pump Inhibitor (EPI), Minimum Inhibitory Concentration (EPI Conc. 20 μg/mL) | Levofloxacin MIC Against P. aerugiuosa PAM1001 in Presence of Efflux Pump Inhibitor (EPI), Minimum Inhibitory Concentration (EPI Conc. 40 μg/mL) |
| --- | --- | --- | --- | --- | --- | --- | --- | --- |
| Cc1ccc2ncc(C(=O)NC[C@@H](CCc3ccccc3)NC(=O)[C@H]3C[C@H](CN)CN3)cc2c1 [Compound M63, (2R,4R)-4-(Aminomethyl)-N-[(1R)-3-phenyl-1-[(6-methyl-3-quinolylcarboxamido)methyl]propyl]-2-pyrrolidinecaroxamide] | 4 µg/mL | 4 µg/mL | 4 µg/mL | 4 µg/mL | 2 µg/mL | 1 µg/mL | 0.008 µg/mL | 0.015 µg/mL |
| Cc1cc2nc(C(O)[C@@H](CCc3ccccc3)NC(=O)[C@@H]3C[C@@H](NC(=O)CN)CN3)oc2cc1C (some centres unmarked) [Compound M67] | 4 µg/mL | 4 µg/mL | 4 µg/mL | 4 µg/mL | 4 µg/mL | 0.5 µg/mL | 0.03 µg/mL | – |
| NC[C@@H]1CN[C@@H](CO[C@@H](CCc2ccccc2)C(=O)Nc2cnc3ccccc3c2)C1 [Compound M69, (2R,4R)-4-(Aminomethyl)-2-[((1S)-3-phenyl-1-(3-quiolylcarbamoyl)propyl)oxymethyl]pyrrolidine] | 4 µg/mL | 4 µg/mL | 2 µg/mL | 2 µg/mL | 0.125 µg/mL | 0.125 µg/mL | 0.125 µg/mL | 0.06 µg/mL |
| NC[C@@H]1CN[C@@H](CO[C@H](CCc2ccccc2)C(=O)Nc2cnc3ccccc3c2)C1 [Compound M70, (2R,4R)-4-(Amiomethyl)-2-[((1R)-3-phenyl-1-(3-quiolylcarbamoyl)propyl)oxymethyl]pyrrolidie] | 4 µg/mL | 4 µg/mL | 2 µg/mL | 1 µg/mL | 1 µg/mL | 0.125 µg/mL | 0.125 µg/mL | 0.06 µg/mL |
| NC[C@@H]1CN[C@@H](COc2ccc3ccccc3n2)C1 [Compound M71, (2R,4R)-4-(Aminomethyl)-2 (2-quiolyloxymethyl)pyrrolidne] | 4 µg/mL | 4 µg/mL | 4 µg/mL | 4 µg/mL | 4 µg/mL | 4 µg/mL | 2 µg/mL | 0.5 µg/mL |
| Cc1ccc2ncc(C(=O)NC[C@H]3C[C@H](CN)CN3)cc2c1 [Compound M72, (2R,4R)-4-(Aminomethyl)-2-(6-methyl-3-quinolylcarboxamidomethyl)pyrrolidine] | 4 µg/mL | 4 µg/mL | 4 µg/mL | 4 µg/mL | 4 µg/mL | 4 µg/mL | 2 µg/mL | 0.5 µg/mL |
